Structures can show the parent of a compound that is named as a salt.
Tests used:
[1] = molecular target: PI3Kγ (p110γ) Recombinant Human Protein (Homo sapiens (Human), UniProt P48736); assay: PI3K-γ Scintillation Proximity Assay; type: biochemical; conditions: read-out: PI3K-gamma SPA IC50
Text: Example B. PI3K-γ Scintillation Proximity Assay
(§1) [γ-^33P]ATP (10 mCi/mL) and Wheat Germ Agglutinin (WGA) YSi SPA Scintillation Beads was purchased from Perkin-Elmer (Waltham, Mass.). Lipid kinase substrate, D-myo-Phosphatidylinositol 4,5-bisphosphate (PtdIns(4,5)P2)D (+)-sn-1,2-di-O-octanoylglyceryl, 3-O-phospho linked (PIP2), CAS 204858-53-7, was purchased from Echelon Biosciences (Salt Lake City, Utah). PI3Kγ (p110γ) Recombinant Human Protein was purchased from Life technology (Grand Island, N.Y.). ATP, MgCl2, DTT, EDTA, MOPS and CHAPS were purchased from Sigma-Aldrich (St. Louis, Mo.).
(§2) The kinase reaction was conducted in polystyrene 384-well Greiner Bio-one white plate from Thermo Fisher Scientific in a final volume of 25 μL. Inhibitors were first diluted serially in DMSO and added to the plate wells before the addition of other reaction components. The final concentration of DMSO in the assay was 2%. The PI3Kγ assay was carried out at room temperature in 20 mM MOPS, pH 6.7, 10 mM MgCl2, 5 mM DTT and CHAPS 0.03%. Reactions were initiated by the addition of ATP, the final reaction mixture consisted of 20 μM PIP2, 2 μM ATP, 0.5 μCi [γ-^33P] ATP, 13 nM PI3Kγ. Reactions were incubated for 120 min and terminated by the addition of 40 μL SPA beads suspended in quench buffer: 163 mM potassium phosphate pH 7.8, 20% glycerol, 25 mM EDTA. The final concentration of SPA beads is 1.0 mg/mL. After the plate sealing, plates were shaken overnight at room temperature and centrifuged at 1500 rpm for 10 min, the radioactivity of the product was determined by scintillation counting on Topcount (Perkin-Elmer). IC50 determination was performed by fitting the curve of percent of the solvent control activity versus the log of the inhibitor concentration using the GraphPad Prism 6.0 software.

[2] = molecular target: PI3Kδ (p110δ/p85α) Recombinant Human Protein (Homo sapiens (Human), UniProt O00329); assay: PI3Kδ Scintillation Proximity Assay; type: biochemical; conditions: read-out: PI3K-delta SPA IC50
Text: Example C. PI3Kδ Scintillation Proximity Assay
as §1, with “PI3Kδ (p110δ/p85α)” for “PI3Kγ (p110γ)”, “Eurofins (St Charles, Mo.).” for “Life technology (Grand Island, N.Y.).”
as §2, with “PI3Kδ” for “PI3Kγ”, “3.4” for “13”, “PI3Kδ.” for “PI3Kγ.”

PI3Kγ (p110γ) Recombinant Human Protein, sequence (P48736 whole entry): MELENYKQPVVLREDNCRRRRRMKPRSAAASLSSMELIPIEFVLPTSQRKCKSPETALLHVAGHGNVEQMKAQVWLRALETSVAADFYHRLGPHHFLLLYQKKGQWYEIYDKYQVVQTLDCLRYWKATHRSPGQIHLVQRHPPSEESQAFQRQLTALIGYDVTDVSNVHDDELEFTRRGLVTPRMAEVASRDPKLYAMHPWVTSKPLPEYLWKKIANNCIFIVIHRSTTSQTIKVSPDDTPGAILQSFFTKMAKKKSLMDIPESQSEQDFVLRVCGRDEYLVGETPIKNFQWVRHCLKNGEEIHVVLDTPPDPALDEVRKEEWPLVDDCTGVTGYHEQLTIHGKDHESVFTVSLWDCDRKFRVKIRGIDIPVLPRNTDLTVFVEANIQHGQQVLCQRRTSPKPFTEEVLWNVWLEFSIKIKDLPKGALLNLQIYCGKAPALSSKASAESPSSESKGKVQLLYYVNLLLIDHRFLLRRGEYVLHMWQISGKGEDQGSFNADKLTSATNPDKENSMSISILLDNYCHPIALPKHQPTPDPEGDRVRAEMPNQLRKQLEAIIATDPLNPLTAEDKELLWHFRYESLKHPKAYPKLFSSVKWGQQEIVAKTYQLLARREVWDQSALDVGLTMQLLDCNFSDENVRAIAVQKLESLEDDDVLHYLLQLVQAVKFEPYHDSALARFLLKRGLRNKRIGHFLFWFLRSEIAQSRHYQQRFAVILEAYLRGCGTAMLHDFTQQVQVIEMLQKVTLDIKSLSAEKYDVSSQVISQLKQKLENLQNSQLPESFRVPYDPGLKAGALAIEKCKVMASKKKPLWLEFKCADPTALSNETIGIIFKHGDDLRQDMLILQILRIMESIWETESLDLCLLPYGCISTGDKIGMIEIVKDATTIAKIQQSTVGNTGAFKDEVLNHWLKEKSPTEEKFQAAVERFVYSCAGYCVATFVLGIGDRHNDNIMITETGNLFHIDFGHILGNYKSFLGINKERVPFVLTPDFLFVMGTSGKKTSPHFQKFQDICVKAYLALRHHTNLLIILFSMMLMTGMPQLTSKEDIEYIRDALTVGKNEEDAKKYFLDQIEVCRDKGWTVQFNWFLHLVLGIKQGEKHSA
PI3Kδ (p110δ/p85α) Recombinant Human Protein, sequence (O00329 whole entry): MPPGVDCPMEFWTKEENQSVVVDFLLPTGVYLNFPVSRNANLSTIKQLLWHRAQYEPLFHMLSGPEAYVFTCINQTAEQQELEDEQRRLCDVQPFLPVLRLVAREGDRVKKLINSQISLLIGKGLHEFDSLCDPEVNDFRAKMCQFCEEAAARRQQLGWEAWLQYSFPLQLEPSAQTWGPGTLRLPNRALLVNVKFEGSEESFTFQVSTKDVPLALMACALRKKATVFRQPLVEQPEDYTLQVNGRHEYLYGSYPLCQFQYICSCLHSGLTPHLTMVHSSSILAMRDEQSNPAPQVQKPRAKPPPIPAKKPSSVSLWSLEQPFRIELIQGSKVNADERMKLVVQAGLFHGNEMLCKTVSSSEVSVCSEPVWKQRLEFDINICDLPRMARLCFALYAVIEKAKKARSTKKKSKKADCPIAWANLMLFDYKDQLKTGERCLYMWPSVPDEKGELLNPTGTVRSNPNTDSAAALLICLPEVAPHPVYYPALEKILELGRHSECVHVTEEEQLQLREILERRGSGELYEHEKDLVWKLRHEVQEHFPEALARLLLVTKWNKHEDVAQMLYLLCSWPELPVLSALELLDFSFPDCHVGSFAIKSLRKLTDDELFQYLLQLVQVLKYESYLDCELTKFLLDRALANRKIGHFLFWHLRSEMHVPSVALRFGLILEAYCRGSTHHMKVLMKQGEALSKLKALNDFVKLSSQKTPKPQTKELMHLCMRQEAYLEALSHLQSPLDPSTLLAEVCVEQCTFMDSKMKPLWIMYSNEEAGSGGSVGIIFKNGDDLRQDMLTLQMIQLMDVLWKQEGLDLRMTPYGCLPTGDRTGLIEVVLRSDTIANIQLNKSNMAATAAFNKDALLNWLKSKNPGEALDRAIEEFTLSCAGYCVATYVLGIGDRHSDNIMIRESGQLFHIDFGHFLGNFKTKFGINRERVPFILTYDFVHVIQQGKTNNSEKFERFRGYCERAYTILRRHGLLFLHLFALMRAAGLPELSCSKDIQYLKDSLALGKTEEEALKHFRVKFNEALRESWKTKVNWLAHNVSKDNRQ
PI3Kδ (p110δ/p85α) Recombinant Human Protein, sequence (P27986 whole entry partner): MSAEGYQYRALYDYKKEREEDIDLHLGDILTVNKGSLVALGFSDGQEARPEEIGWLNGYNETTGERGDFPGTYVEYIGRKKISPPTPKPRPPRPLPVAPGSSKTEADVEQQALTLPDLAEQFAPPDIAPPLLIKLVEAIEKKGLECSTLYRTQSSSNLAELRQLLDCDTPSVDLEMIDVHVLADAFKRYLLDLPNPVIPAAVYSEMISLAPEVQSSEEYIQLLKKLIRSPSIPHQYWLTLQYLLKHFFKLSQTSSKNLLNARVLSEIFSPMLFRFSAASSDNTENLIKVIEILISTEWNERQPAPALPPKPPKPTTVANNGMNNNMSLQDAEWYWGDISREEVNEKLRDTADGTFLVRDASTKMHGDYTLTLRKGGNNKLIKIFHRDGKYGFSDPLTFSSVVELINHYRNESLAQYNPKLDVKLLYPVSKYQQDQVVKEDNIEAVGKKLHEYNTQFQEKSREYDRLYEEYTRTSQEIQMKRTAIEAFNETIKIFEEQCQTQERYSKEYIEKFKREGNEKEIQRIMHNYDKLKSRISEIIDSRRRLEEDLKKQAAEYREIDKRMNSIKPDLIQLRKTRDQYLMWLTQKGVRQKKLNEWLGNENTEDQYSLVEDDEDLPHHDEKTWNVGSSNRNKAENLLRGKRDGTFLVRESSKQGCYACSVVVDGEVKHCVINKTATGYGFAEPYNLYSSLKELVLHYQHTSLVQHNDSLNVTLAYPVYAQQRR

Row | Compound | IC50 [1] [nM] | IC50 [2] [nM]
1 | Cc1[nH]c(-c2cc(-c3cncc(N4CCOCC4)c3)ccn2)nc1CN[C@H]1CCOC1 [Example 286, (3S)-N-{[5-Methyl-2-(5-morpholin-4-yl-3,4′-bipyridin-2′-yl)-1H-imidazol-4-yl]methyl}tetrahydrofuran-3-amine] | > 500 | ≤ 500
2 | COc1cncc(-c2ccnc(-c3nc(C)c(NC(C)=O)[nH]3)c2)c1 [Example 75, N-[2-(5-Methoxy-3,4′-bipyridin-2′-yl)-4-methyl-1H-imidazol-5-yl]acetamide] | > 500 | > 500
3 | COc1cncc(-c2ccnc(-c3nc(C(=O)O)c(C(F)(F)F)[nH]3)c2)c1 [Example 81, 2-(5-Methoxy-3,4′-bipyridin-2′-yl)-5-(trifluoromethyl)-1H-imidazole-4-carboxylic acid trifluoroacetate salt] | > 500 | > 500
4 | Cc1[nH]c(-c2cc(-c3cncc(N4CCOCC4)c3)ccn2)nc1C(=O)N(C)C(C)C [Example 259, N-Isopropyl-N,5-dimethyl-2-(5-morpholin-4-yl-3,4′-bipyridin-2′-yl)-1H-imidazole-4-carboxamide] | ≤ 500 | ≤ 500
5 | COC(=O)N1CC=C(c2cncc(-c3ccnc(-c4nc(C)c(C)[nH]4)c3)c2)C1 [Example 239, Methyl 3-(2′-(4,5-dimethyl-1H-imidazol-2-y1)-3,4′-bipyridin-5-yl)-2,5-dihydro-1H-pyrrole-1-carboxylate] | ≤ 500 | ≤ 500
6 | Cc1nc(-c2cc(C3=CCCN(S(C)(=O)=O)C3)ccn2)[nH]c1C [Example 220, 2-(4,5-Dimethyl-1H-imidazol-2-yl)-4-(1-(methylsulfonyl)-1,2,5,6-tetrahydropyridin-3-yl)pyridine trifluoroacetate salt] | ≤ 500 | > 500
7 | Cc1nc(-c2cc(C3=CCN(Cc4ccc(Cl)cc4)C3)ccn2)[nH]c1C [Example 229, 4-(1-(4-Chlorobenzyl)-2,5-dihydro-1H-pyrrol-3-yl)-2-(4,5-dimethyl-1H-imidazol-2-yl)pyridine trifluoroacetate salt] | > 500 | > 500
8 | Cc1nc(-c2cc(-c3cncc(C(=O)N4CCC(O)(Cc5ccccc5)CC4)c3)ccn2)[nH]c1C [Example 196, 4-Benzyl-1-{[2′-(4,5-dimethyl-1H-imidazol-2-yl)-3,4′-bipyridin-5-yl]carbonyl}piperidin-4-ol trifluoroacetate salt] | ≤ 500 | ≤ 50
9 | Cc1[nH]c(-c2cc(-c3cncc(S(C)(=O)=O)c3)ccn2)nc1C(=O)N(C)C [Example 251, N,N,5-Trimethyl-2-[5-(methylsulfonyl)-3,4′-bipyridin-2′-yl]-1H-imidazole-4-carboxamide trifluoroacetate salt] | ≤ 500 | ≤ 100
10 | COCCNC(=O)c1cncc(-c2ccnc(-c3nc(C)c(C)[nH]3)c2)c1 [Example 166, 2′-(4,5-Dimethyl-1H-imidazol-2-yl)-N-(2-methoxyethyl)-3,4′-bipyridine-5-carboxamide trifluoroacetate salt] | ≤ 100 | ≤ 50
11 | CCCn1cc(-c2ccnc(-c3ncc(-c4ccccc4)[nH]3)c2)cn1 [Example 12, 2-(5-Phenyl-1H-imidazol-2-yl)-4-(1-propyl-1H-pyrazol-4-yl)pyridine trifluoroacetate salt] | ≤ 500 | ≤ 500
12 | Cc1nc(-c2cc(-c3cncc(NC(=O)OC(C)(C)C)c3)ccn2)[nH]c1C [Example 128, tert-Butyl [2′-(4,5-dimethyl-1H-imidazol-2-yl)-3,4′-bipyridin-5-yl]carbamate] | ≤ 500 | ≤ 500
13 | COc1cncc(-c2ccnc(-c3nnc[nH]3)c2)c1 [Example 72, 5-Methoxy-2′-(4H-1,2,4-triazol-3-yl)-3,4′-bipyridine] | > 500 | > 500
14 | COC(=O)c1cccc(Cn2cc(-c3ccnc(-c4ncc(-c5ccccc5)[nH]4)c3)cn2)c1 [Example 31, Methyl 3-((4-(2-(5-phenyl-1H-imidazol-2-yl)pyridin-4-yl)-1H-pyrazol-1-yl)methyl)benzoate trifluoroacetate salt] | ≤ 500 | > 500

Next, values leading:

Row | IC50 [1] [nM] | IC50 [2] [nM] | Compound
15 | > 500 | ≤ 500 | Cc1[nH]c(-c2cc(-c3cncc(N4CCOCC4)c3)ccn2)nc1CN[C@@H]1CCOC1 [Example 287, (3R)-N-{[5-Methyl-2-(5-morpholin-4-yl-3,4′-bipyridin-2′-yl)-1H-imidazol-4-yl]methyl}tetrahydrofuran-3-amine]
16 | ≤ 500 | ≤ 500 | Cc1nc(-c2cc(-c3cncc(C(=O)NCC4CCOCC4)c3)ccn2)[nH]c1C [Example 162, 2′-(4,5-Dimethyl-1H-imidazol-2-yl)-N-((tetrahydro-2H-pyran-4-yl)methyl)-3,4′-bipyridine-5-carboxamide trifluoroacetate salt]
17 | > 500 | ≤ 50 | c1ccc(-c2cnc(-c3cc(-c4ccc(N5CCOCC5)nc4)ccn3)[nH]2)cc1 [Example 41, 4-(2′-(5-Phenyl-1H-imidazol-2-yl)-3,4′-bipyridin-6-yl)morpholine trifluoroacetate salt]
18 | ≤ 500 | > 500 | Cc1[nH]c(-c2cc(-c3cncc(N4CCOCC4)c3)ccn2)nc1C(=O)O [Example 257, 5-Methyl-2-(5-morpholin-4-yl-3,4′-bipyridin-2′-yl)-1H-imidazole-4-carboxylic Acid Trifluoroacetate Salt]
19 | > 500 | ≤ 50 | COCCCNCc1nc(-c2cc(-c3cncc(N4CCOCC4)c3)ccn2)[nH]c1C [Example 291, 3-Methoxy-N-{[5-methyl-2-(5-morpholin-4-yl-3,4′-bipyridin-2′-yl)-1H-imidazol-4-yl]methyl}propan-1-amine]
20 | > 500 | > 500 | c1ccc(-c2cnc(-c3cc(-c4cnn(CCN5CCOCC5)c4)ccn3)[nH]2)cc1 [Example 26, 4-(2-(4-(2-(5-Phenyl-1H-imidazol-2-yl)pyridin-4-yl)-1H-pyrazol-1-yl)ethyl)morpholine trifluoroacetate salt]
21 | ≤ 500 | > 500 | COc1cncc(-c2ccnc(-c3cnc(NCC(C)C)[nH]3)c2)c1 [Example 64, N-Isobutyl-5-(5-methoxy-3,4′-bipyridin-2′-yl)-1H-imidazol-2-amine trifluoroacetate salt]
22 | ≤ 100 | ≤ 500 | CCCN(C)C(=O)c1cncc(-c2ccnc(-c3nc(C)c(C)[nH]3)c2)c1 [Example 210, 2′-(4,5-Dimethyl-1H-imidazol-2-yl)-N-methyl-N-propyl-3,4′-bipyridine-5-carboxamide]
23 | > 500 | > 500 | NC(=O)Cn1cc(-c2ccnc(-c3ncc(-c4ccccc4)[nH]3)c2)cn1 [Example 48, 2-(4-(2-(5-Phenyl-1H-imidazol-2-yl)pyridin-4-yl)-1H-pyrazol-1-yl)acetamide trifluoroacetate salt]
24 | ≤ 500 | ≤ 500 | Cn1cc(-c2ccnc(-c3ncc(-c4ccccc4)[nH]3)c2)cn1 [Example 8, 4-(1-Methyl-1H-pyrazol-4-yl)-2-(5-phenyl-1H-imidazol-2-yl)pyridine trifluoroacetate salt]
25 | ≤ 100 | ≤ 50 | COCCN(C)C(=O)c1cncc(-c2ccnc(-c3nc(C)c(C)[nH]3)c2)c1 [Example 204, 2′-(4,5-Dimethyl-1H-imidazol-2-yl)-N-(2-methoxyethyl)-N-methyl-3,4′-bipyridine-5-carboxamide trifluoroacetate salt]

Source: patent US11352340B2, “Pyridine and pyridimine compounds as PI3K-gamma inhibitors” (Incyte Corporation, priority 2016, dated 2022)
